The values below come from PMC10349922 (Bioconjugate chemistry, 2023).

For orientation: IC50 means the concentration at which inhibition is half-maximal. Read a high IC50 as a need for much substance.

The target in this experiment is human Galectin-3 (Gal-3); His-Galectin-3 (Homo sapiens, UniProt P17931). The experiment in a line: competitive enzyme-linked lectin assay. The class given is binding. The conditions noted are these: His-Galectin-3 vs S0G2-BSA coated plate, PBS, r.t.

Structures are written as SMILES.

human Galectin-3 (Gal-3); His-Galectin-3, sequence (P17931 2-250): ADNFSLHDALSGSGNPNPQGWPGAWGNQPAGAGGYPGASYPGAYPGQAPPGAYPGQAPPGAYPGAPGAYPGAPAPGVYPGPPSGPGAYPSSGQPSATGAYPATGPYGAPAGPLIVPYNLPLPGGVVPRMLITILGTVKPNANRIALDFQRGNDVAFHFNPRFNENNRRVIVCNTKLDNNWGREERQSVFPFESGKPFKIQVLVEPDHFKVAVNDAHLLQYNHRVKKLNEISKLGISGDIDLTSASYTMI

Compound `CC(=O)N[C@@H]1[C@@H](O)[C@H](O[C@@H]2O[C@H](CO)[C@@H](O[C@@H]3O[C@H](CO[C@H]4O[C@H](CO)[C@@H](O)[C@H](O)[C@@H]4O[C@@H]4O[C@H](CO)[C@@H](O[C@@H]5O[C@H](CO)[C@H](O)[C@H](O)[C@H]5O)[C@H](O)[C@H]4NC(C)=O)[C@@H](O)[C@H](O[C@H]4O[C@H](CO)[C@@H](O)[C@H](O)[C@@H]4O[C@@H]4O[C@H](CO)[C@@H](O[C@@H]5O[C@H](CO)[C@H](O)[C@H](O)[C@H]5O)[C@H](O)[C@H]4NC(C)=O)[C@@H]3O)[C@H](O)[C@H]2NC(C)=O)[C@@H](CO)O[C@H]1NC(=O)C[C@H](N)C(=O)O` [compound 1, S0G2-Asn] yielded an IC50 of 7.8 µM.
